In brackets after ≈: the same amount, converted by molar mass.
Tests used:
Type in all cases: functional
Listeria monocytogenes = test: Antimicrobial activity against Listeria monocytogenes incubated at 37 degC for 24 hrs by broth macrodilution method
Bacillus cereus = test: Antimicrobial activity against Bacillus cereus incubated at 37 degC for 24 hrs by broth macrodilution method
Streptococcus pneumoniae = test: Antimicrobial activity against Streptococcus pneumoniae incubated at 37 degC for 24 hrs by broth macrodilution method
Clostridioides difficile = test: Antimicrobial activity against Clostridium difficile ATCC 9689 incubated at 37 degC for 24 hrs by broth macrodilution method; details: ATCC 9689, 24 h
Staphylococcus aureus [1] = test: Antimicrobial activity against methicillin-resistant Staphylococcus aureus incubated at 37 degC for 24 hrs by broth macrodilution method
Salmonella sp. = test: Antimicrobial activity against Salmonella sp. incubated at 37 degC for 24 hrs by broth macrodilution method
Escherichia coli = test: Antimicrobial activity against Escherichia coli O157:H7 incubated at 37 degC for 24 hrs by broth macrodilution method; details: O157:H7, 24 h
Klebsiella pneumoniae [2] = test: Antimicrobial activity against Klebsiella pneumoniae ATCC 13883 incubated at 37 degC for 24 hrs by broth macrodilution method; details: ATCC 13883, 24 h
Campylobacter jejuni = test: Antimicrobial activity against Campylobacter jejuni ATCC 33291 incubated at 37 degC for 24 hrs by broth macrodilution method; details: ATCC 33291, 24 h
Staphylococcus aureus [3] = test: Antimicrobial activity against methicillin-sensitive Staphylococcus aureus incubated at 37 degC for 24 hrs by broth macrodilution method
Pseudomonas = test: Antimicrobial activity against Pseudomonas incubated at 37 degC for 24 hrs by broth macrodilution method
Neisseria gonorrhoeae = test: Antimicrobial activity against Neisseria gonorrhoeae incubated at 37 degC for 24 hrs by broth macrodilution method
Pseudomonas aeruginosa = test: Antimicrobial activity against Pseudomonas aeruginosa incubated at 37 degC for 24 hrs by broth macrodilution method
Klebsiella pneumoniae [4] = test: Antimicrobial activity against Klebsiella pneumoniae

SMILES	MIC (Listeria monocytogenes) [mg/L]	MIC (Bacillus cereus) [mg/L]	MIC (Streptococcus pneumoniae) [mg/L]	MIC (Clostridioides difficile) [mg/L]	MIC (Staphylococcus aureus [1]) [mg/L]	MIC (Salmonella sp.) [mg/L]	MIC (Escherichia coli) [mg/L]	MIC (Klebsiella pneumoniae [2]) [mg/L]	MIC (Campylobacter jejuni) [mg/L]	MIC (Staphylococcus aureus [3]) [mg/L]	MIC (Pseudomonas) [mg/L]	MIC (Neisseria gonorrhoeae) [mg/L]	MIC (Pseudomonas aeruginosa) [mg/L]	MIC (Klebsiella pneumoniae [4]) [mg/L]
Oc1c(Br)cc(Br)cc1Oc1ccc(Br)cc1Br	1 (≈ 1.99 µM)	5 (≈ 9.96 µM)	5 (≈ 9.96 µM)	10 (≈ 19.9 µM)	1 (≈ 1.99 µM)	10 (≈ 19.9 µM)	10 (≈ 19.9 µM)	5 (≈ 9.96 µM)	5 (≈ 9.96 µM)					
Oc1cc(Br)cc(Br)c1Oc1ccc(Br)cc1Br	2 (≈ 3.99 µM)	0.1 (≈ 0.199 µM)		4 (≈ 7.97 µM)	0.1 (≈ 0.199 µM)	1 (≈ 1.99 µM)	8 (≈ 15.9 µM)	0.1 (≈ 0.199 µM)	5 (≈ 9.96 µM)	1 (≈ 1.99 µM)	4 (≈ 7.97 µM)	2 (≈ 3.99 µM)	16 (≈ 31.9 µM)	
Oc1cc(Br)c(Br)c(Br)c1Oc1ccc(Br)cc1Br	0.1 (≈ 0.172 µM)			10 (≈ 17.2 µM)	0.1 (≈ 0.172 µM)	10 (≈ 17.2 µM)			5 (≈ 8.61 µM)					
CO[C@@]1(NC(=O)Cc2cccs2)C(=O)N2C(C(=O)O)=C(COC(N)=O)CS[C@@H]21 [CEFOXITIN]								0.25 (≈ 0.585 µM)						2 (≈ 4.68 µM)
O=C(O)c1cn(C2CC2)c2cc(N3CCNCC3)c(F)cc2c1=O [CIPROFLOXACIN]								0.125 (≈ 0.377 µM)						0.5 (≈ 1.51 µM)
C[C@@H](O)[C@H]1C(=O)N2C(C(=O)O)=C(SCCNC=N)C[C@H]12 [IMIPENEM ANHYDROUS]								0.25 (≈ 0.835 µM)						0.25 (≈ 0.835 µM)
